This passage reports CC50 results from ChEMBL document CHEMBL6120934, “Isolation and Characterization of Insecticidal Cyclotides from Viola communis” (J Nat Prod, 2025).

Each structure is given as a SMILES string. Bridge positions count the residues as written; N and C are the ends. Peptide text beside a SMILES is read from it.

This data set is described as follows: Cytotoxicity against Spodoptera frugiperda Sf9 cells assessed as inhibition of cell viability incubated for 24 hrs by resazurin assay. Type of data set: toxicity, cell-based.
One may read the CC50 as the concentration giving 50% cytotoxicity. Regarding `CC(C)C[C@@H]1NC(=O)CNC(=O)[C@H](CC(N)=O)NC(=O)[C@H](CCCNC(=N)N)NC(=O)[C@H]([C@@H](C)O)NC(=O)[C@@H]2CSSC[C@@H]3NC(=O)[C@H]([C@@H](C)O)NC(=O)CNC(=O)CNC(=O)[C@H](C(C)C)NC(=O)[C@@H]4CSSC[C@H](NC(=O)[C@H]([C@@H](C)O)NC(=O)[C@H](CSSC[C@H](NC(=O)[C@H](C(C)C)NC(=O)[C@@H]5CCCN5C1=O)C(=O)NCC(=O)N[C@@H](CCC(=O)O)C(=O)N[C@@H]([C@@H](C)O)C(=O)N4)NC(=O)CNC(=O)[C@@H]1CCCN1C(=O)[C@H]([C@@H](C)O)NC(=O)[C@H](CC(N)=O)NC3=O)C(=O)N[C@@H](CO)C(=O)N[C@@H](Cc1c[nH]c3ccccc13)C(=O)N1CCC[C@H]1C(=O)N[C@@H](C(C)C)C(=O)N2`, the CC50 at 24 h was 2310 nM.

On to `CC[C@H](C)[C@@H]1NC(=O)[C@H](C(C)C)NC(=O)[C@H](CO)NC(=O)[C@H](CO)NC(=O)[C@H](Cc2ccccc2)NC(=O)[C@@H]2CSSC[C@@H](C(=O)N[C@@H](Cc3ccc(O)cc3)C(=O)N[C@@H](CC(N)=O)C(=O)O)NC(=O)[C@H](C(C)C)NC(=O)[C@H](CCCCN)NC(=O)[C@H](CC(N)=O)NC(=O)[C@H](CCCCN)NC(=O)[C@@H]3CSSC[C@H](NC(=O)[C@H](CO)NC(=O)[C@H](CCC(=O)O)NC(=O)CNC(=O)[C@@H](NC(=O)[C@@H]4CCCN4C(=O)[C@@H](NC(=O)[C@H](C)NC(=O)[C@H](C)N)C(C)C)CSSC[C@H](NC(=O)CNC1=O)C(=O)N[C@@H](CO)C(=O)N3)C(=O)N[C@@H](C(C)C)C(=O)N[C@@H](Cc1c[nH]c3ccccc13)C(=O)N[C@@H]([C@@H](C)CC)C(=O)N1CCC[C@H]1C(=O)N2` (H-AAVPCGESCVWIPCFSSVIGCSCKNKVCYN-OH; disulfide 5-21, 9-23, 14-28), for which the CC50 at 24 h stood at 160 nM.

Regarding `CC(C)[C@H](NC(=O)[C@@H]1CCCN1C(=O)[C@H](C)NC(=O)CN)C(=O)N[C@H]1CSSC[C@@H]2NC(=O)CNC(=O)[C@@H]3CCCN3C(=O)[C@H]([C@@H](C)O)NC(=O)[C@H](CC(N)=O)NC(=O)[C@@H]3CSSC[C@@H](C(=O)N[C@@H](CO)C(=O)N[C@@H](CCCCN)C(=O)N[C@@H](CC(N)=O)C(=O)O)NC(=O)[C@H](C(C)C)NC(=O)[C@@H]4CCCN4C(=O)[C@H](Cc4c[nH]c5ccccc45)NC(=O)[C@@H]4CCCN4C(=O)[C@H](CC(=O)O)NC(=O)[C@H](CSSC[C@H](NC(=O)[C@H]([C@@H](C)O)NC(=O)[C@H](CCC(=O)O)NC(=O)CNC1=O)C(=O)N[C@@H](Cc1ccccc1)C(=O)NCC(=O)NCC(=O)N[C@@H]([C@@H](C)O)C(=O)N3)NC(=O)[C@H]([C@@H](C)O)NC2=O` (H-GAPVCGETCFGGTCNTPGCTCDPWPVCSKN-OH; disulfide 5-19, 9-21, 14-27), the CC50 at 24 h was 7610 nM.

Consider `CC[C@H](C)[C@@H]1NC(=O)[C@@H]2CSSC[C@@H](C(=O)N[C@@H](Cc3ccc(O)cc3)C(=O)N[C@@H](CCCCN)C(=O)N[C@@H](CC(N)=O)C(=O)O)NC(=O)[C@H](C(C)C)NC(=O)[C@H](CCCCN)NC(=O)[C@H](CO)NC(=O)[C@H](CCCCN)NC(=O)[C@@H]3CSSC[C@H](NC(=O)[C@H](CO)NC(=O)[C@H](CCC(=O)O)NC(=O)CNC(=O)[C@@H](NC(=O)[C@@H]4CCCN4C(=O)[C@H](CC(C)C)NC(=O)[C@@H](NC(=O)CN)[C@@H](C)O)CSSC[C@H](NC(=O)CNC(=O)[C@H](C(C)C)NC(=O)[C@H](C(C)C)NC(=O)[C@H](CO)NC(=O)[C@H](CO)NC1=O)C(=O)N[C@@H](CO)C(=O)N3)C(=O)N[C@@H](C(C)C)C(=O)N[C@@H](Cc1c[nH]c3ccccc13)C(=O)N[C@@H]([C@@H](C)CC)C(=O)N1CCC[C@H]1C(=O)N2` (H-GTLPCGESCVWIPCISSVVGCSCKSKVCYKN-OH; disulfide 5-21, 9-23, 14-28), for which the CC50 at 24 h is 110 nM.
